From patent US10308643B2, “Heterocyclic compound” (Takeda Pharmaceutical Company Limited, priority 2015, dated 2019)

Columns and labels:
Assay type in all cases: biochemical
HDAC1 enzyme = biological target: T1, HDAC1 enzyme (Homo sapiens, UniProt Q13547); assay: HDAC1/6 Enzyme Inhibitory Assay (HDAC-Glo I/II Assay kit), HDAC1; conditions: 1 μM test compound; wells without enzyme = 100% inhibition; read-out: HDAC1 inhibitory rate (%) (1 μM)
T1 construct: transducing full length HDAC1 and HDAC6 genes into Sf-9 insect cells; GST; purchased SignalChem; host or cells: Sf-9 insect cells
Summary of the method: (§1)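 Full-length human HDAC1 or HDAC6, GST-purified from Sf-9 cells, was preincubated with compound for 60 min at room temperature in Tris-HCl pH 7.5 buffer with MgCl2, KCl, NaCl, glutathione and Tween-20. HDAC-Glo I/II substrate-developer was then added and reacted for 20 min before luminescence was read. Inhibition was set relative to no-enzyme wells as 100% inhibition.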

HDAC9 enzyme = biological target: T2, HDAC9 enzyme (Homo sapiens, UniProt Q9UKV0); assay: HDAC9 Enzyme Inhibitory Assay (HDAC-Glo class IIa); conditions: 1 μM test compound; wells without enzyme = 100% inhibition; read-out: HDAC9 inhibitory rate (%) (1 μM)
T2 construct: transducing full length HDAC9 gene into Sf-9 insect cells; made in house; host or cells: Sf-9 insect cells
Summary of the method: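 Full-length human HDAC9 from Sf-9 cells, Ni-NTA purified, preincubated with compound for 60 min at room temperature in Tris-HCl pH 7.5 buffer (MgCl2, KCl, NaCl, glutathione, Tween-20). HDAC-Glo class IIa substrate-developer added; luminescence read after 20 min, with no-enzyme wells defining 100% inhibition.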

HDAC6 enzyme = biological target: T3, HDAC6 enzyme (Homo sapiens, UniProt Q9UBN7); assay: HDAC1/6 Enzyme Inhibitory Assay (HDAC-Glo I/II Assay kit), HDAC6; conditions: 1 μM test compound; wells without enzyme = 100% inhibition; read-out: HDAC6 inhibitory rate (%) (1 μM)
T3 construct: transducing full length HDAC1 and HDAC6 genes into Sf-9 insect cells; GST; purchased SignalChem; host or cells: Sf-9 insect cells
T3 sequence (Q9UBN7 1-1215): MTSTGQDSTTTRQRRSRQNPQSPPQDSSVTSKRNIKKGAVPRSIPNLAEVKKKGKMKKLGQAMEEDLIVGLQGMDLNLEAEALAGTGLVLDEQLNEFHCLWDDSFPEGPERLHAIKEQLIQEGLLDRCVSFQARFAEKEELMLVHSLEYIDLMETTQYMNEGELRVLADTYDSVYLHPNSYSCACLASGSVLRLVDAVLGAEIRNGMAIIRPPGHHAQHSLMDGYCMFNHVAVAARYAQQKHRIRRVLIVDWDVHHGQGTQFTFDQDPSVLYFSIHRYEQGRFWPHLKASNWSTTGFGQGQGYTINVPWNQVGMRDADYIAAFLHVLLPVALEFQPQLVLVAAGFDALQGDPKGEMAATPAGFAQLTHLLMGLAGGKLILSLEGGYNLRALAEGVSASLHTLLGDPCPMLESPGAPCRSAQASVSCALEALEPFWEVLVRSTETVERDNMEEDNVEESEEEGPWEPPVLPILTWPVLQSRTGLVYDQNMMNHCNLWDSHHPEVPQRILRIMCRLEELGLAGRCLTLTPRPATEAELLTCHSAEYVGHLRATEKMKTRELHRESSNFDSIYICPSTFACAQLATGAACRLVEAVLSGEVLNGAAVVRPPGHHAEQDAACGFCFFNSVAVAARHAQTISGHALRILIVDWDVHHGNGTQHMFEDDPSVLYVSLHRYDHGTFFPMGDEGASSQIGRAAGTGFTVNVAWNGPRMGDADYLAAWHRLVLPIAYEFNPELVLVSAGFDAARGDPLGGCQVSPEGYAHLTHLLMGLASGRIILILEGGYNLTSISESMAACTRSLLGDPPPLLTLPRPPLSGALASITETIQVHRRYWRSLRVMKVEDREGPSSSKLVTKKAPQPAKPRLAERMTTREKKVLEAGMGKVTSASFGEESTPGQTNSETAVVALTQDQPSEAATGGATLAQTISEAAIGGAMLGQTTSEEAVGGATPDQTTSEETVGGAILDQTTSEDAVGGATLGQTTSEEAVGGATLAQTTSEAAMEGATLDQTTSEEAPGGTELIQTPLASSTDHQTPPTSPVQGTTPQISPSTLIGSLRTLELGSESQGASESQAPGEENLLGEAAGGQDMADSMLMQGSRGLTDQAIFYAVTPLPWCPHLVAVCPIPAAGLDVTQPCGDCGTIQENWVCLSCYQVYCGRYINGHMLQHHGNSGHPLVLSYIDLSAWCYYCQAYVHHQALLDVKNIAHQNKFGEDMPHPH
Summary of the method: as §1

T1 sequence (Q13547 whole entry): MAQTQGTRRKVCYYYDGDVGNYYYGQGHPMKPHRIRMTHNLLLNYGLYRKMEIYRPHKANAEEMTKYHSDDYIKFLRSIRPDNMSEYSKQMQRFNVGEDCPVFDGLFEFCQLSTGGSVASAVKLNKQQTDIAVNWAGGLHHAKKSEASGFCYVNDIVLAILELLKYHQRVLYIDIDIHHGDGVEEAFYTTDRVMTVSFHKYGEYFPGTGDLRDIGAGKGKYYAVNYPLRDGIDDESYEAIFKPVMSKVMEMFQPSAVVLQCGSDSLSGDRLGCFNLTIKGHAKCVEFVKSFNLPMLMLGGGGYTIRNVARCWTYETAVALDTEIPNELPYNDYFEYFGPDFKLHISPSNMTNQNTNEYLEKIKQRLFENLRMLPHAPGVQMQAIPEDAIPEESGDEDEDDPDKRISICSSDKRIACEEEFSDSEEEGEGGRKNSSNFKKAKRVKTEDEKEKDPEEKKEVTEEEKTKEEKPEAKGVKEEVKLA
T2 sequence (Q9UKV0 whole entry, species assumed): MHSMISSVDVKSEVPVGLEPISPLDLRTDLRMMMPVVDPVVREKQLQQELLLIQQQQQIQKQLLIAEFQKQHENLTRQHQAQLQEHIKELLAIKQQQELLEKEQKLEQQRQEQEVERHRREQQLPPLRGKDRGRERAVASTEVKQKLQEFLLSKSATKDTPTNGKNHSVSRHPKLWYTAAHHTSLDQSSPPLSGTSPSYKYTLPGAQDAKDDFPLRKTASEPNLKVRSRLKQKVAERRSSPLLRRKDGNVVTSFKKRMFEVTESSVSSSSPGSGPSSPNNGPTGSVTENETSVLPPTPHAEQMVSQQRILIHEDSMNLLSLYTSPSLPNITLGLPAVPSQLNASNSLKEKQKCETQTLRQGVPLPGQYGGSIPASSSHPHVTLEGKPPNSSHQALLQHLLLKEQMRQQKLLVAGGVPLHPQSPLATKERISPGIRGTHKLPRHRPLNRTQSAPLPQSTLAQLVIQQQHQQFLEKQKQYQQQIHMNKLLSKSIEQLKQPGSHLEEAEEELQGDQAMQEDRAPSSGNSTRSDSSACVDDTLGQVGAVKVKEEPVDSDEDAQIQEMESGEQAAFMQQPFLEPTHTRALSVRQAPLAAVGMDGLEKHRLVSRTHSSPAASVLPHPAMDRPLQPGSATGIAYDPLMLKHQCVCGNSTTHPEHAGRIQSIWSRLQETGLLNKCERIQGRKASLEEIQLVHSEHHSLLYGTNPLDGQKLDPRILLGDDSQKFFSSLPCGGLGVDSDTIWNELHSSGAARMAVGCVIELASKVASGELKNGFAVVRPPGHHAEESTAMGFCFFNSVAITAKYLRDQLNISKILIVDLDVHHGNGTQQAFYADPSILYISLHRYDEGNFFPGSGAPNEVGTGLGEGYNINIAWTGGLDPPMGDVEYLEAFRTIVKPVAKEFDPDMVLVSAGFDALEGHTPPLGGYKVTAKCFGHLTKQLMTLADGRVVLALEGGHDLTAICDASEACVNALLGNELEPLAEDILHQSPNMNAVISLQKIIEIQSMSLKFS

Row | SMILES | inhibition at 1 µM (HDAC1 enzyme) [%] | inhibition at 1 µM (HDAC9 enzyme) [%] | inhibition at 1 µM (HDAC6 enzyme) [%]
1 | O=C(N[C@@H]1CCCC[C@H]1N1Cc2ccc(-c3noc(C(F)(F)F)n3)cc2C1=O)N1CCC1 [Example 159, N-((1R,2R)-2-(1-oxo-6-(5-(trifluoromethyl)-1,2,4-oxadiazol-3-yl)-1,3-dihydro-2H-isoindol-2-yl)cyclohexyl)azetidine-1-carboxamide] | 5 | 39 | 98
2 | N#CC12CC(C(=O)N[C@@H]3CCCC[C@H]3N3Cc4ccc(-c5noc(C(F)(F)F)n5)cc4C3=O)(C1)C2 [Example 160, 3-cyano-N-((1R,2R)-2-(1-oxo-6-(5-(trifluoromethyl)-1,2,4-oxadiazol-3-yl)-1,3-dihydro-2H-isoindol-2-yl)cyclohexyl)bicyclo[1.1.1]pentane-1-carboxamide] | 11 | 38 | 99
3 | O=C(N[C@@H]1CCCC[C@H]1N1Cc2ccc(-c3noc(C(F)(F)F)n3)cc2C1=O)N1CC(F)(F)C1 [Example 162, 3,3-difluoro-N-((1R,2R)-2-(1-oxo-6-(5-(trifluoromethyl)-1,2,4-oxadiazol-3-yl)-1,3-dihydro-2H-isoindol-2-yl)cyclohexyl)azetidine-1-carboxamide] | 5 | 34 | 99
4 | COC1CN(C(=O)N[C@@H]2CCCC[C@H]2N2Cc3ccc(-c4noc(C(F)(F)F)n4)cc3C2=O)C1 [Example 163, 3-methoxy-N-((1R,2R)-2-(1-oxo-6-(5-(trifluoromethyl)-1,2,4-oxadiazol-3-yl)-1,3-dihydro-2H-isoindol-2-yl)cyclohexyl)azetidine-1-carboxamide] | 1 | 32 | 95
5 | O=C(N[C@@H]1CCCC[C@H]1N1Cc2ccc(-c3noc(C(F)(F)F)n3)cc2C1=O)N1CC2CC(C1)O2 [Example 164, N-((1R,2R)-2-(1-oxo-6-(5-(trifiuoromethyl)-1,2,4-oxadiazol-3-yl)-1,3-dihydro-2H-isoindol-2-yl)cyclohexyl)-6-oxa-3-azabicyclo[3.1.1]heptane-3-carboxamide] | 1 | 18 | 97
6 | O=C(N[C@@H]1CCCC[C@H]1N1Cc2ccc(-c3noc(C(F)(F)F)n3)cc2C1=O)N1C2CCCC1COC2 [Example 167, N-((1R,2R)-2-(1-oxo-6-(5-(trifluoromethyl)-1,2,4-oxadiazol-3-yl)-1,3-dihydro-2H-isoindol-2-yl)cyclohexyl)-3-oxa-9-azabicyclo[3.3.1]nonane-9-carboxamide] | 7 | 34 | 101

The remaining lines, values ahead:

Row | inhibition at 1 µM (HDAC1 enzyme) [%] | inhibition at 1 µM (HDAC9 enzyme) [%] | inhibition at 1 µM (HDAC6 enzyme) [%] | SMILES
7 | 1 | 20 | 76 | O=C(N[C@@H]1CCCC[C@H]1N1Cc2ccc(-c3noc(C(F)(F)F)n3)cc2C1=O)N1CC2(COC2)C1 [Example 161, N-((1R,2R)-2-(1-oxo-6-(5-(trifluoromethyl)-1,2,4-oxadiazol-3-yl)-1,3-dihydro-2H-isoindol-2-yl)cyclohexyl)-2-oxa-6-azaspiro[3.3]heptane-6-carboxamide]
8 | 6 | 43 | 96 | O=C(NC1COC1)N[C@@H]1CCCC[C@H]1N1Cc2ccc(-c3noc(C(F)(F)F)n3)cc2C1=O [Example 165, 1-oxetan-3-yl-3-((1R,2R)-2-(1-oxo-6-(5-(trifluoromethyl)-1,2,4-oxadiazol-3-yl)-1,3-dihydro-2H-isoindol-2-yl)cyclohexyl)urea]
9 | 12 | 36 | 100 | CC(C)N(C(=O)N[C@@H]1CCCC[C@H]1N1Cc2ccc(-c3noc(C(F)(F)F)n3)cc2C1=O)C(C)C [Example 166, 1,1-diisopropyl-3-((1R,2R)-2-(1-oxo-6-(5-(trifluoromethyl)-1,2,4-oxadiazol-3-yl)-1,3-dihydro-2H-isoindol-2-yl)cyclohexyl)urea]
